Columns and labels:
[1] = target: T1, Alpha-1A adrenergic receptor (Homo sapiens) (UniProt P35348); test: Inhibition of alpha 1A adrenergic receptor at 1 uM
T1 sequence (whole entry): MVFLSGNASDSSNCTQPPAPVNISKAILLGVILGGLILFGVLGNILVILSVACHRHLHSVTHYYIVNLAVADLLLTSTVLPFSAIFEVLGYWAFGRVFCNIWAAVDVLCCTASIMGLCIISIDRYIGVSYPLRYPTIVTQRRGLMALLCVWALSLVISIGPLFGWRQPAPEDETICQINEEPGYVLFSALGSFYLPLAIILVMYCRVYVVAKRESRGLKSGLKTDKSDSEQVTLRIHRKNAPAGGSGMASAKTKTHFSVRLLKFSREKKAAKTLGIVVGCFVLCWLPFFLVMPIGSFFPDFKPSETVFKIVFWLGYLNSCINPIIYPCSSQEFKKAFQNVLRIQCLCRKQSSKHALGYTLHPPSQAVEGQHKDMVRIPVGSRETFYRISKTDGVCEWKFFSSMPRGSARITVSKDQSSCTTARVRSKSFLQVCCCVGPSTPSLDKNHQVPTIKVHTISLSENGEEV

Cathepsin S = Cathepsin S (Homo sapiens, UniProt P25774)
Sequence of Cathepsin S (P25774 whole entry): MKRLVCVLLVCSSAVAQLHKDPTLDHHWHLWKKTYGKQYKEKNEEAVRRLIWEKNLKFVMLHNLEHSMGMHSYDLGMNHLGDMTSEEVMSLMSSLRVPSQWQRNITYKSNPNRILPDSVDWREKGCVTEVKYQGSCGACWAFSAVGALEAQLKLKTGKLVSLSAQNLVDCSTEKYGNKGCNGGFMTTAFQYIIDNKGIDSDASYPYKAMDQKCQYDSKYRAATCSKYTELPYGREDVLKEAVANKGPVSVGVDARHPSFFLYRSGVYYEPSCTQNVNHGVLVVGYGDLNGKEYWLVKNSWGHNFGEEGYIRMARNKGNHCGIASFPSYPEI
Description: Inhibition of cathepsin S

Question: How did the inhibition [1] turn out when CS(=O)(=O)N1CCc2c(c(-c3ccc(C(F)(F)F)cc3)nn2CC(O)CN2CCC(N3C(=O)CCc4cc(Cl)ccc43)CC2)C1 (stereo unspecified) was run?
Answer: The inhibition was less than 10%.

Question: With CS(=O)(=O)N1CCc2c(c(-c3ccc(Br)cc3)nn2CCCN2CCC(N3C(=O)COc4ccccc43)CC2)C1 as the compound, how does the IC50 (Cathepsin S) read?
Answer: Its IC50 is 60 nM.

Question: How did the IC50 (Cathepsin S) turn out when CS(=O)(=O)N1CCc2c(c(-c3ccc(Br)cc3)nn2CC(O)CN2CCC(N3c4ccc(Cl)cc4CNS3(=O)=O)CC2)C1 (stereo unspecified) was run?
Answer: Its IC50 is 75 nM.

Question: How did the IC50 (Cathepsin S) turn out when CS(=O)(=O)N1CCc2c(c(-c3ccc(Br)cc3)nn2CC(O)CN2CCC(N3CCCc4ccccc43)CC2)C1 (stereo unspecified) was run?
Answer: The IC50 was 322 nM.

Question: With CS(=O)(=O)N1CCc2c(c(-c3ccc(C(F)(F)F)cc3)nn2CC(O)CN2CCC(N3C(=O)NCc4cc(Cl)ccc43)CC2)C1 (stereo unspecified) as the compound, how does the inhibition [1] read?
Answer: The inhibition was 40%.

Question: Which IC50 (Cathepsin S) does the source give for CS(=O)(=O)N1CCc2c(c(-c3ccc(C(F)(F)F)cc3)nn2CC(O)CN2CCC(N3C(=O)OCc4ccccc43)CC2)C1 (stereo unspecified) here?
Answer: The IC50 was 88 nM.

Question: CS(=O)(=O)N1CCc2c(c(-c3ccc(Br)cc3)nn2CC(O)CN2CCC(N3CCc4ccccc4C3)CC2)C1 (stereo unspecified) was tested. Which IC50 (Cathepsin S) did it give?
Answer: Its IC50 is 1780 nM.

Question: With CS(=O)(=O)N1CCc2c(c(-c3ccc(C(F)(F)F)cc3)nn2CCCN2CCC(N3C(=O)COc4ccccc43)CC2)C1 as the compound, how does the inhibition [1] read?
Answer: The inhibition was 72%.

Question: CS(=O)(=O)N1CCc2c(c(-c3ccc(C(F)(F)F)cc3)nn2CC(O)CN2CCC(N3C(=O)COc4ccccc43)CC2)C1 (stereo unspecified) was tested. Which inhibition [1] did it give?
Answer: Its inhibition is 60%.

Question: What about the IC50 (Cathepsin S) of the same compound?
Answer: The IC50 was 28 nM.

Question: With CS(=O)(=O)N1CCc2c(c(-c3ccc(C(F)(F)F)cc3)nn2CC(O)CN2CCN(c3ccnc4ccccc34)CC2)C1 (stereo unspecified) as the compound, how does the IC50 (Cathepsin S) read?
Answer: Its IC50 is 1700 nM.
